Results on 7 compounds are retold here after ChEMBL document CHEMBL1201862, “PubChem BioAssay data set” (2004).

Some test systems named below: SF-268; HL-60; OVCAR-5; SK-MEL-28; NCI-H460; MDA-MB-231; HT-29; M14; SW-620; COLO 205; Malme-3M; CCRF-CEM; IGROV-1; MDA-N; HCT-15; UACC-257; NCI-H23; OVCAR-8; HOP-92; A498.
Common to all, as to experiment: inhibition of tumour cell growth, NCI panel, 48 h

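Growth conditions: 96-well plates. Treatment: test compound, 48 hours, 5 concentrations. Analysis: linear interpolation between bracketing concentrations; unreached endpoints set to highest concentration. Abbreviation: GI50, concentration required for 50% inhibition of growth.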 Active and inactive are the calls of the source. Rule as the data show it: active = GI50 up to about 1.1 µM and inactive = higher.

As for `CCC1=NC(N/N=C/c2ccco2)=N/C1=C\c1ccccc1O`, the GI50 in the experiment with SF-268 is 21.8 µM (inactive); in the experiment with HL-60, 27.4 µM (inactive); with OVCAR-5, 78.7 µM (inactive); with SK-MEL-28, 38.3 µM (inactive); with NCI-H460, 14.9 µM (inactive); with MDA-MB-231, > 100 µM (inactive). Also, the GI50 in the experiment with HT-29 is 36 µM (inactive); in the experiment with M14, 35.2 µM (inactive); with SW-620 it was 63.4 µM (inactive); in the experiment on COLO 205, 44.3 µM (inactive); with Malme-3M it was 31 µM (inactive); with CCRF-CEM, 12.7 µM (inactive). Also, the GI50 in the experiment on IGROV-1 was 26.4 µM (inactive); with MDA-N, 50.4 µM (inactive); in the experiment with HCT-15, 12.6 µM; with UACC-257, 35.2 µM (inactive); in the experiment with NCI-H23, 28.8 µM (inactive); in the experiment with OVCAR-8, 25.4 µM (inactive). Also, the GI50 was 70 µM (inactive) with HOP-92 and 68.9 µM (inactive) in the experiment on A498.

Take `COc1ccc(OC)c2c1-c1nnnn1CCC2(C)C`: the GI50 in the experiment with SF-268, in the experiment with HL-60, with OVCAR-5, with SK-MEL-28, in the experiment on NCI-H460 and in the experiment on MDA-MB-231 was > 100 µM (inactive) in each case. The GI50 with HT-29, in the experiment with M14, in the experiment with SW-620, in the experiment with COLO 205, in the experiment on Malme-3M and with CCRF-CEM was > 100 µM (inactive) throughout. In addition, the GI50 in the experiment on IGROV-1 was > 100 µM (inactive); with MDA-N, > 100 µM (inactive); with HCT-15, over 100 µM; in the experiment with UACC-257 it was > 100 µM (inactive); in the experiment on NCI-H23, > 100 µM (inactive); in the experiment on OVCAR-8 it was > 100 µM (inactive). Further, the GI50 in the experiment on HOP-92 and with A498 was > 100 µM (inactive) throughout.

For the compound `CCOP(=O)(OCC)/C(C#N)=C/c1ccc(-c2ccc(F)cc2F)o1`, the GI50 in the experiment with SF-268 is 17.3 µM (inactive); with HL-60, 12.3 µM (inactive); in the experiment with OVCAR-5, 17.3 µM (inactive); with SK-MEL-28, 14.8 µM (inactive); in the experiment on NCI-H460 it was 20 µM (inactive); with MDA-MB-231 it was 16.7 µM (inactive). Also, the GI50 with HT-29 was 16.5 µM (inactive); with M14, 17.2 µM (inactive); in the experiment on SW-620 it was 18.7 µM (inactive); with COLO 205, 14.9 µM (inactive); with Malme-3M it was 18.4 µM (inactive); in the experiment with CCRF-CEM it was 14.6 µM (inactive). The GI50 was 13.9 µM (inactive) in the experiment with IGROV-1; 33.7 µM (inactive) with MDA-N; 13.5 µM in the experiment with HCT-15; 13.3 µM (inactive) in the experiment on UACC-257; 14.5 µM (inactive) in the experiment on NCI-H23; 15.2 µM (inactive) in the experiment with OVCAR-8. Also, the figures for the GI50 in the experiment with HOP-92 and in the experiment on A498 were 15.2 µM (inactive) and 15.1 µM (inactive), respectively.

Take `CC1=CC(C)C/C=C/C2C3OC3(C)C(C)C3C(Cc4c[nH]c5ccccc45)NC(=O)C23C(=O)C=CC(=O)C1O` (stereo not given): the GI50 with SF-268 is 15.1 µM (inactive); in the experiment with HL-60, 1.61 µM (inactive); in the experiment on OVCAR-5, 12.5 µM (inactive); in the experiment with SK-MEL-28, 14.7 µM (inactive); in the experiment on NCI-H460, 12.8 µM (inactive); with MDA-MB-231 it was 4.67 µM (inactive). In addition, the GI50 in the experiment with HT-29 is 1.42 µM (inactive); in the experiment with M14, 3.57 µM (inactive); in the experiment with SW-620, 2.02 µM (inactive); in the experiment with COLO 205, 0.354 µM (active); in the experiment with Malme-3M, 1.56 µM (inactive); in the experiment with CCRF-CEM it was 0.247 µM (active). Moreover, the GI50 was 11.1 µM (inactive) in the experiment with IGROV-1; 5.53 µM (inactive) in the experiment on MDA-N; 2.26 µM in the experiment with HCT-15; 6.27 µM (inactive) in the experiment on UACC-257; 14.5 µM (inactive) in the experiment on NCI-H23; 19.5 µM (inactive) with OVCAR-8. The GI50 in the experiment with HOP-92 is 0.9 µM (active); in the experiment on A498, 0.213 µM (active).

For `COC(O)C12OC3CO[Si](C(C)C)(C(C)C)O[Si](C(C)C)(C(C)C)OC3C1Oc1nc(=O)ccn12` (stereo not given), the GI50 in the experiment on SF-268 is 9.91 µM (inactive); with HL-60, 3.29 µM (inactive); in the experiment on OVCAR-5, 15.7 µM (inactive); in the experiment on SK-MEL-28, > 100 µM (inactive); in the experiment with NCI-H460 it was 11.3 µM (inactive); in the experiment with MDA-MB-231, 17.1 µM (inactive). For the same compound, the GI50 with HT-29 is 6.73 µM (inactive); with M14, 12.7 µM (inactive); in the experiment on SW-620, > 36.8 µM (inactive); with COLO 205, 12.7 µM (inactive); in the experiment on Malme-3M it was 13.1 µM (inactive); in the experiment with CCRF-CEM, 4.5 µM (inactive). Also, the GI50 was 12.3 µM (inactive) in the experiment on IGROV-1; 12.8 µM (inactive) in the experiment with MDA-N; 16.3 µM in the experiment with HCT-15; 11.8 µM (inactive) in the experiment with UACC-257; 14.3 µM (inactive) in the experiment on NCI-H23; 11.2 µM (inactive) in the experiment with OVCAR-8. Also, the GI50 with HOP-92 was 10.1 µM (inactive); with A498 it was 17.3 µM (inactive).

For the compound `Nc1ccc2c(SCC(=O)Nc3ccccc3-c3ccccc3NC(=O)CSc3c4ccccc4nc4cc(N)ccc34)c3ccccc3nc2c1`, the GI50 was 37.1 µM (inactive) in the experiment on SF-268; 3.21 µM (inactive) in the experiment with HL-60; 70 µM (inactive) with OVCAR-5; 21.8 µM (inactive) with SK-MEL-28; 29.2 µM (inactive) in the experiment with NCI-H460; > 50.4 µM (inactive) with MDA-MB-231. Also, the GI50 in the experiment on HT-29 is 29.6 µM (inactive); in the experiment on M14 it was 24.4 µM (inactive); in the experiment on SW-620 it was 29.6 µM (inactive); in the experiment on COLO 205, 14.2 µM (inactive); in the experiment on Malme-3M it was 22.9 µM (inactive); in the experiment on CCRF-CEM it was 2.79 µM (inactive). Besides, the GI50 in the experiment on IGROV-1 is 27 µM (inactive); with MDA-N it was 44.5 µM (inactive); in the experiment on HCT-15 it was 31.1 µM; in the experiment on UACC-257, 24.4 µM (inactive); with NCI-H23 it was 18 µM (inactive); in the experiment on OVCAR-8, 26.3 µM (inactive). Also, the results for the GI50 in the experiment on HOP-92 and with A498 were 43.5 µM (inactive) and 29.9 µM (inactive), respectively.

Take `CC1=NNC(=O)C1C1CC(c2c[nH]c3ccccc23)=NN=C1Cl` (stereo not given): the GI50 in the experiment with SF-268 is 55.6 µM (inactive); in the experiment on HL-60, 20 µM (inactive); in the experiment on OVCAR-5, > 100 µM (inactive); in the experiment with SK-MEL-28 it was 87.5 µM (inactive); in the experiment on NCI-H460, 34.6 µM (inactive); in the experiment on MDA-MB-231, 46.6 µM (inactive). In addition, the GI50 in the experiment with HT-29 is 40.9 µM (inactive); in the experiment on M14, 53.5 µM (inactive); in the experiment on SW-620 it was 63.5 µM (inactive); with COLO 205 it was 28.1 µM (inactive); in the experiment with Malme-3M it was > 100 µM (inactive); with CCRF-CEM it was 25.8 µM (inactive). Moreover, the GI50 in the experiment on IGROV-1 is 20.6 µM (inactive); with MDA-N it was 54.7 µM (inactive); in the experiment on HCT-15, 35.8 µM; in the experiment on UACC-257, > 100 µM (inactive); in the experiment with NCI-H23, 39.4 µM (inactive); in the experiment on OVCAR-8 it was > 100 µM (inactive). Further, the GI50 in the experiment on HOP-92 and with A498 was > 100 µM (inactive) throughout.
